Data published in ChEMBL document CHEMBL1137248, “2-(3-Amino-3-deoxy-beta-D-xylofuranosyl)thiazole-4-carboxamide: a new tiazofurin analogue with potent antitumour activity” (Bioorg Med Chem Lett, 2006).

Experiments:
Type in all cases: cell-based
HeLa = assay: Cytotoxicity against HeLa cells after 24 hrs by MTT assay; details: Homo sapiens
K562 = assay: Cytotoxicity against human K562 cells after 24 hrs by MTT assay; details: K562, 24 h
Jurkat = assay: Cytotoxicity against Jurkat cells after 24 hrs by MTT assay; details: Homo sapiens
MRC5 = assay: Cytotoxicity against MRC5 cells after 24 hrs by MTT assay; details: Homo sapiens, MRC5, 24 h
HT-29 = assay: Cytotoxicity against HT29 cells after 24 hrs by MTT assay; details: Homo sapiens, HT-29, 24 h

Work on NC(=O)c1csc([C@@H]2O[C@H](CO)[C@@H](O)[C@H]2O)n1 [TIAZOFURIN] yielded an IC50 (HeLa) of 4760 nM, an IC50 (K562) of 5290 nM and an IC50 (Jurkat) of 140 nM.
NC(=O)c1csc([C@@H]2O[C@H](CO)[C@H](N)[C@H]2O)n1 was tested, and the IC50 (HeLa) was 280 nM, the IC50 (MRC5) was > 100000 nM and the IC50 (K562) was 52 nM. For the same compound, the IC50 (Jurkat) was 60 nM and the IC50 (HT-29) was 37 nM.
With CC(=O)N[C@@H]1[C@@H](O)[C@H](c2nc(C(N)=O)cs2)O[C@@H]1CO the IC50 (HeLa) was > 100000 nM, the IC50 (MRC5) was 89700 nM and the IC50 (K562) was 95 nM. For the same compound, the IC50 (Jurkat) was 450 nM and the IC50 (HT-29) was 1000 nM.
